ChEMBL document CHEMBL3392969, “SAR156497, an exquisitely selective inhibitor of aurora kinases” (J Med Chem, 2015)

Legend:
[1] = target: MAP kinase p38 (Homo sapiens, UniProt O15264+Q15759+Q16539+P53778)
Description: Inhibition of p-38 kinase (unknown origin)

[2] = target: Angiopoietin-1 receptor (Homo sapiens, UniProt Q02763)
Description: Inhibition of TIE-2 (unknown origin)

[3] = target: Focal adhesion kinase 1 (Homo sapiens, UniProt Q05397)
Description: Inhibition of FAK (unknown origin)

[4] = test system: HeLa; experiment: cells; conditions: Homo sapiens
Description: Antiproliferative activity against human HeLa cells assessed as 14C-thymidine incorporation by Micro-Beta radioactivity counting analysis

[5] = target: Insulin-like growth factor 1 receptor (Homo sapiens, UniProt P08069)
Chain of Insulin-like growth factor 1 receptor (P08069 31-736 limits assumed): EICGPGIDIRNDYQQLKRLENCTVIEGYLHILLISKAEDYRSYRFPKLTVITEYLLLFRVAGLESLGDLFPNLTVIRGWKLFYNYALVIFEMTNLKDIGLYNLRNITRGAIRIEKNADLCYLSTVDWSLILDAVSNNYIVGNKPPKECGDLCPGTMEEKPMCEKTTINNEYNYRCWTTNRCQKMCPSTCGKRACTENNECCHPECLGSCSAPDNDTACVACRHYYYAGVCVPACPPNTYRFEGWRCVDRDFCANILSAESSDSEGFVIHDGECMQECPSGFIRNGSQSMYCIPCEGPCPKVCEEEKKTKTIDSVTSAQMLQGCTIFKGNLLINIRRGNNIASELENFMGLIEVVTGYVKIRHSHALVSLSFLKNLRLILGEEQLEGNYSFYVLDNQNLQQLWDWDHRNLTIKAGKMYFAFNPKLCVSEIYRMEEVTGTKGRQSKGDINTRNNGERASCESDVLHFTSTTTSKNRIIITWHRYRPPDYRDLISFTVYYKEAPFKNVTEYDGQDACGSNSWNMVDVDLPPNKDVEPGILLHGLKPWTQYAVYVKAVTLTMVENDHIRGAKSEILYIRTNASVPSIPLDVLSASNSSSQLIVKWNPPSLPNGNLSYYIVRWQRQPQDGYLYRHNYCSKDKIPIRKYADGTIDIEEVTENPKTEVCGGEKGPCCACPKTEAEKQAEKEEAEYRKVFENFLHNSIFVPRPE
Chain of Insulin-like growth factor 1 receptor (P08069 741-1367 limits assumed): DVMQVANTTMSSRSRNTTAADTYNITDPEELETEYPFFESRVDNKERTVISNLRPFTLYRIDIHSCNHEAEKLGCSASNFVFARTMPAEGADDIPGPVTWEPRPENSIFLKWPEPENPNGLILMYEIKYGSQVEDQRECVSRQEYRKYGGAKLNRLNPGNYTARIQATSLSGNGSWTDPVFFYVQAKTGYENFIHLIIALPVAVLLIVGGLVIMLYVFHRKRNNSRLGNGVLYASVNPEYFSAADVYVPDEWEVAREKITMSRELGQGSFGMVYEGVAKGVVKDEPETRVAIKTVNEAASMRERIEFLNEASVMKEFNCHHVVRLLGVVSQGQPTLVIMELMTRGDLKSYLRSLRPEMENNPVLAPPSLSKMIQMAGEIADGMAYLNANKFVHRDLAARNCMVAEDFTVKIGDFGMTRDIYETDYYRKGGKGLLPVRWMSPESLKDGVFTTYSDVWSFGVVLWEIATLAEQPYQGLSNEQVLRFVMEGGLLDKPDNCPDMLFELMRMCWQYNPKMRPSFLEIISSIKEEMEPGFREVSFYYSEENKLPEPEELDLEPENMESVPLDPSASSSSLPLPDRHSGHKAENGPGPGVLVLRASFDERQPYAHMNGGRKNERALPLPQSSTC
Description: Inhibition of IGF1R (unknown origin)

Chain of Focal adhesion kinase 1 (Q05397 whole entry): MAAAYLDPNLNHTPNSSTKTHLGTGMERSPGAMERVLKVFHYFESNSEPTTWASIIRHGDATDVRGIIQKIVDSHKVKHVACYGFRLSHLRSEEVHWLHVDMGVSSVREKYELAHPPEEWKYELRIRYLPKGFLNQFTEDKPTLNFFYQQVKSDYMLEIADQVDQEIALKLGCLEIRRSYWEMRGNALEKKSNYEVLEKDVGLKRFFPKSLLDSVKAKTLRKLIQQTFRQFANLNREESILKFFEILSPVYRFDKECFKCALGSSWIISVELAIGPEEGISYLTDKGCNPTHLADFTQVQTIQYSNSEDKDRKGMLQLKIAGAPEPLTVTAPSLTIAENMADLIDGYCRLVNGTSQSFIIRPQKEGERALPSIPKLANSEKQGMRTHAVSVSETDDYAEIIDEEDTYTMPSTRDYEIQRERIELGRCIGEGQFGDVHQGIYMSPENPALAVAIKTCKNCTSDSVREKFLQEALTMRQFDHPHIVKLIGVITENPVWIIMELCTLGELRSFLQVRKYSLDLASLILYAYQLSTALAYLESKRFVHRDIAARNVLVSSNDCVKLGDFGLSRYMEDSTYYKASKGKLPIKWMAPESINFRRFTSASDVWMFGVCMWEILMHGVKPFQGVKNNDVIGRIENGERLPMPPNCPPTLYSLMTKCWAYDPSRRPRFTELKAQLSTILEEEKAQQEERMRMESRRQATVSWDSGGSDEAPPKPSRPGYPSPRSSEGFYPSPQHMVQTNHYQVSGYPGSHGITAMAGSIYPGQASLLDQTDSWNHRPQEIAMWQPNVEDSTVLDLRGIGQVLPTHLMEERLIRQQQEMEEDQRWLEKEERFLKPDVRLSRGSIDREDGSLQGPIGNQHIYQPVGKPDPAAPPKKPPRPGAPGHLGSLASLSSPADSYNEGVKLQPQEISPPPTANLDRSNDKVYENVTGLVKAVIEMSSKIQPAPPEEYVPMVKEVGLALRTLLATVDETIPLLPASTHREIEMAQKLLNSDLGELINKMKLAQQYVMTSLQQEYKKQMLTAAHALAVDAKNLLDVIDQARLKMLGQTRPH
Chain of Angiopoietin-1 receptor (Q02763 whole entry): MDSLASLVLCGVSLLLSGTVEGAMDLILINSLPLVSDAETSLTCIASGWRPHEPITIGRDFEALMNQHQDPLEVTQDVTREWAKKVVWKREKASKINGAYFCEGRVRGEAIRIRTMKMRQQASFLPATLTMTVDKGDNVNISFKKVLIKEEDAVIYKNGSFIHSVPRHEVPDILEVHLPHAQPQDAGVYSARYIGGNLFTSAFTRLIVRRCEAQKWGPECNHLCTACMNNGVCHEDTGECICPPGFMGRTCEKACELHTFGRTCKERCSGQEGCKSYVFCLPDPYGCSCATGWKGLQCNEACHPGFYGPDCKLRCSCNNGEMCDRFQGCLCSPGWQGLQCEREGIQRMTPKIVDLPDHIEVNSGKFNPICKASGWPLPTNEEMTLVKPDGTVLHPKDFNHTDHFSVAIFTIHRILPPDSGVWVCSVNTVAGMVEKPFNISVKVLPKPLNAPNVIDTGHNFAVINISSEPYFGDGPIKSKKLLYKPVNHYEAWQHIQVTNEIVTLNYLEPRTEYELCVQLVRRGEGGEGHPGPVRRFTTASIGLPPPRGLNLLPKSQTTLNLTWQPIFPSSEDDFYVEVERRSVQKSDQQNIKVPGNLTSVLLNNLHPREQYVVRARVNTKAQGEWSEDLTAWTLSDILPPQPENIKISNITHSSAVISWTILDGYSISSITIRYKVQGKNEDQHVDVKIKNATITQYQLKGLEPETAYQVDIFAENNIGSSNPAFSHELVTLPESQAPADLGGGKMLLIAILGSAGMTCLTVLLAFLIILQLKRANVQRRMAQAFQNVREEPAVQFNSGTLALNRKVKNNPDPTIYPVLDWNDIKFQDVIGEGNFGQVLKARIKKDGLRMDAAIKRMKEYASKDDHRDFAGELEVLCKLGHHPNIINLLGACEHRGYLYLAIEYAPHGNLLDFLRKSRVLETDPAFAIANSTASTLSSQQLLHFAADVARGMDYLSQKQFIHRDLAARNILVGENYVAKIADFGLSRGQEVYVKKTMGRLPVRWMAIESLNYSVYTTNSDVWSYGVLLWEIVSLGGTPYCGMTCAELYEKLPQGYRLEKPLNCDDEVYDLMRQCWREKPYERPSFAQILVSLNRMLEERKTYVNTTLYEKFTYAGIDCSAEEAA

**Q.** Which IC50 [1] does the source give for `O=C1CNCC2=C1C(c1ccccc1F)c1c[nH]nc1N2` (racemic) here?
**A.** > 20 µM

**Q.** What about the IC50 [2] of the same molecule?
**A.** > 20 µM

**Q.** What about the IC50 [3] of the same molecule?
**A.** > 20 µM

**Q.** What about the IC50 [4] of the same molecule?
**A.** > 10 µM

**Q.** What about the IC50 [5] of the same molecule?
**A.** > 20 µM
